One assay has as its target T1, rLipB (Moesziomyces antarcticus, UniProt P41365).
T1 construct: recombinant CaLB secreted constitutively (PGK promoter) by Pichia pastoris; lyophilized culture supernatant, gift of LaBiM, not purified
T1 sequence (P41365 26-342): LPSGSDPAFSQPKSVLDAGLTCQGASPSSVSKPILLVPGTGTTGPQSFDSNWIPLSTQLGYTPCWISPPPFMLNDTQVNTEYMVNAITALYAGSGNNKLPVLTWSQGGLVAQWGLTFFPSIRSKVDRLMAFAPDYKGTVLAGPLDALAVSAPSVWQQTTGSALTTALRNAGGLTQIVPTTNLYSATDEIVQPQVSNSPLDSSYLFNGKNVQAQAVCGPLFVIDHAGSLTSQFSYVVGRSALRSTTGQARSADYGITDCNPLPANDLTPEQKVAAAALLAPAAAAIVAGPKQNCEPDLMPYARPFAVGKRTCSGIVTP
Kind of assay: spectrofluorimetric release of 4-methylumbelliferone by lyophilized culture supernatant. The assay is classed as biochemical. As to conditions: pH 7, 0.05 M phosphate, 45 °C; crude lyophilized supernatant.

The target in assay [1] is T2, UhL (Ustilago hordei, UniProt I2G5F8).
T2 construct: gene UHOR_02134; codon-optimized gene in pPICZalphaA (alpha-factor secretion), C-terminal 6xHis, 330 residues expressed, 35 kDa predicted / 36 kDa by Western blot, N-glycosylated; Pichia pastoris X-33 culture supernatant, not purified
T2 sequence (I2G5F8 20-343): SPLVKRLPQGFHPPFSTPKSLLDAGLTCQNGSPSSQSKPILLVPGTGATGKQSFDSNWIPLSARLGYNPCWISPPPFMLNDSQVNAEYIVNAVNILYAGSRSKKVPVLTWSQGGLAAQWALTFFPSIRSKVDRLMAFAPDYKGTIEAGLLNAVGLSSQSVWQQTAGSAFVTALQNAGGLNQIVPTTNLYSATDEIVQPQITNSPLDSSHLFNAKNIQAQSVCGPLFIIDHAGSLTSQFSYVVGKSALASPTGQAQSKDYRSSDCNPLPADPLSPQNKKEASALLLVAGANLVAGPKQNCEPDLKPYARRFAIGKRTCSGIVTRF
Description: spectrofluorimetric release of 4-methylumbelliferone by culture supernatant. As to conditions: pH 7, 0.05 M phosphate, 45 °C; crude culture supernatant. The assay is classed as biochemical.

Assay [2] has as its target T2, UhL. Kind of assay: hydrolysis halo on tributyrin agar plate of expressing clones (wild-type X-33 as control). The assay is classed as cell-based. To be noted: BMMY agar, pH 6.0, 30 °C, 4 days, methanol induction.

This is an account of results in paper PMC9844320, “Novel CaLB-like Lipase Found Using ProspectBIO, a Software for Genome-Based Bioprospection” (BioTech, 2023).

Take `CCCC(=O)Oc1ccc2c(C)cc(=O)oc2c1` [C4, MUF-butyrate]: the relative activity entry at rLipB is given as “rLipB activity was increased, as the ester substrate chain length increased up to C7”.

Take `CCCCCCC(=O)Oc1ccc2c(C)cc(=O)oc2c1` [MUF-7, MUF-heptanoate]: the relative activity entry on rLipB and at UhL [1] was “Both enzymes showed the highest activity with MUF-heptanoate (MUF-7)” throughout.

Consider `CCCC(=O)OCC(COC(=O)CCC)OC(=O)CCC` [tributyrin], for which the “hydrolysis halo on tributyrin agar plate of expressing clones (wild-type X-33 as)” value on UhL [2] is “expressed in Pichia pastoris, showing activity against tributyrin triglyceride”.
